Patent publication US20230040594A1, “MILK-DERIVED POLYPEPTIDE DERIVATIVE, COMPOSITION AND METHOD FOR PREVENTING AND TREATING OBESITY” (Nanjing Maternity and Child Health Care Hospital, priority 2021, published 2023)

Tests used:
[1] = test system: C57BL/6J male mice fed with high-fat diet; test: Glucose tolerance test (GTT) in mice with high-fat diet (Embodiment 3); format: in vivo; conditions: FIG. 6
Method: (§1) C57BL/6J male mice at 6-8 weeks old were used as research subjects, and an experiment was carried out after adaptation to a SPF animal room for one week. The mice were fed with high-fat diet (with 60% of fat content) for 10 weeks to induce obesity phenotype in mice. At the same time, different drug concentrations (5 mg/kg and 10 mg/kg) of the milk-derived polypeptide derivatives corresponding to SEQ ID NO.5 were provided, and were administered by intraperitoneal injection twice a week, with dissolved normal saline (Vehicle) as a control.
(§2) Insulin Sensitivity: The mice are fasted overnight for 12 hours, and at a next day, insulin was injected by intraperitoneal injection at a standard of 0.75 U per kg of weight. Blood samples were taken from tail vein at 0 min, 15 min, 30 min, 60 min, 90 min and 120 min after the injection, and changes of the blood glucose in the mice were measured by a blood glucose meter to evaluate the insulin sensitivity of the mice. Glucose tolerance test: after fasting for 6 hours, the mice were injected with glucose by intraperitoneal injection at a concentration of 1 g per kg of weight. Blood samples were taken from tail vein at 0 min, 15 min, 30 min, 60 min, 90 min and 120 min after the injection, and changes of the blood glucose in the mice were measured by a blood glucose meter to evaluate the glucose tolerance of the mice.

UCP1 protein [2] = test: UCP1 protein immunohistochemistry and Western blot in adipose tissues of obese model mice (Embodiment 6); format: in vivo; conditions: 10 mg/kg i.p. once a day for 8 weeks; FIG. 13 and FIG. 14
Method: as §1, with “mg/kg) were provided, and” for “mg/kg) of”, “NO.5” for “NO.5 were provided, and”, “control. […] At the same time, total protein was extracted by a RIPA lysate, and expression of the UCP1 protein in the adipose tissues was detected by a Western blot method after quantifying, SDS-PAGE electrophoresis and transmembrane.” for “control.”
(§3) C57BL/6J male mice at 6-8 weeks old were used as research subjects, and an experiment was carried out after adaptation to a SPF animal room for one week. […] The mice were weighed every week for their weight changes, and at the same time, blood glucose changes of the mice were detected by a blood glucose meter. […] As mentioned above, H&E staining was also performed to observe morphological changes of lipid droplets, and expression of the UCP1 protein in adipose tissues was detected by immunohistochemistry and the Western blot methods.

UCP1 protein [3] = test: UCP1 protein immunohistochemistry and Western blot in adipose tissues of mice with high-fat diet (Embodiment 5); format: in vivo
Method: (§4) C57BL/6J male mice at 6-8 weeks old were used as research subjects, and an experiment was carried out after adaptation to a SPF animal room for one week. The mice were fed with high-fat diet (with 60% of fat content) for 10 weeks to induce obesity phenotype in mice. At the same time, different drug concentrations (5 mg/kg and 10 mg/kg) were provided, and the milk-derived polypeptide derivatives corresponding to SEQ ID NO.5 were administered by intraperitoneal injection twice a week, with dissolved normal saline (Vehicle) as a control. After 10 weeks of intervention, the mice were killed, and brown fat (BAT) at scapula and inguinal subcutaneous white adipose tissues (iWAT) were taken to be fixed with a adipose tissue fixing solution (Solarbio, G2185) for 24 hours. H&E staining and a UCP1 protein immunohistochemistry study were carried out after dehydration, paraffin embedding and sectioning. The H&E staining is performed using a kit (ab245800) from Abcam, and specific steps can be found in kit instructions. Tissue sections were subjected to the immunohistochemistry study after dewaxing and antigen repairing. Specifically, the sections were incubated overnight with UCP1 antibody (1:200, Proteintech) at 4 degrees. The antibody was diluted with PBS containing 1% of BSA, and a color reaction was carried out next day with a DAB kit from Abcam. Specific operations can be referred to kit experimental steps. At the same time, total protein was extracted by a RIPA lysate, and expression of the UCP1 protein in the adipose tissues was detected by a Western blot method after quantifying, SDS-PAGE electrophoresis and transmembrane.

[4] = test system: brown fat (BAT) and inguinal subcutaneous white adipose tissues (iWAT); test: H&E staining of adipose tissues of mice with high-fat diet (Embodiment 5); format: in vivo; conditions: 10 weeks; 5 and 10 mg/kg i.p. twice a week; FIG. 9
Method: as §4, with “Specifically, the sections were incubated overnight with UCP1 antibody (1:200, Proteintech) at 4 degrees. The antibody was diluted with PBS containing 1% of BSA, and a color reaction was carried out next day with a DAB kit from Abcam. Specific operations can be referred to kit experimental steps.” left out

[5] = test system: C57BL/6J male mice fed with high-fat diet; test: Fasting blood glucose, blood lipid and insulin levels of mice with high-fat diet (Embodiment 4); format: in vivo; conditions: continuous intervention for 10 weeks; 5 and 10 mg/kg i.p. twice a week; FIG. 8
Method: as §1, with “resolvent” for “dissolved normal”, “control. The changes of the blood glucose in the mice were detected by a Roche blood glucose meter, and changes of blood lipid and insulin level in the mice were detected by Applygen and Millipore commercial kits respectively.” for “control.”

[6] = test system: adipose tissues of obese model mice; test: H&E staining of adipose tissues of obese model mice (Embodiment 6); format: in vivo; conditions: 10 mg/kg i.p. once a day for 8 weeks; FIG. 13
Method: as §1, with “mg/kg) were provided, and” for “mg/kg) of”, “NO.5” for “NO.5 were provided, and”, “control. […] At the same time, total protein was extracted by a RIPA lysate, and expression of the UCP1 protein in the adipose tissues was detected by a Western blot method after quantifying, SDS-PAGE electrophoresis and transmembrane.” for “control.”
as §3

[7] = test system: C57BL/6J male mice fed with high-fat diet; test: Weight increasing of mice with high-fat diet (Embodiment 2); format: in vivo; conditions: 5 and 10 mg/kg i.p. twice a week
Method: as §1, with “mg/kg) were provided, and” for “mg/kg) of”, “NO.5” for “NO.5 were provided, and”, “control. The mice are weighed to obtain body weight and their food intake calculated every week. After the mice were killed, brown fat (BAT) at scapular, inguinal white adipose tissue (iWAT) and epididymal white adipose tissue (eWAT) were photographed, weighed to obtain wet weight and lean mass of the mice was calculated.” for “control.”

[8] = test system: obese C57BL/6J male mice induced by high-fat diet for six months; test: Body weight, blood glucose and adipose tissue volume of obese model mice (Embodiment 6); format: in vivo
Method: C57BL/6J male mice at 6-8 weeks old were used as research subjects, and an experiment was carried out after adaptation to a SPF animal room for one week. The mice were fed with high-fat diet (with 60% of fat content) for six months to induce obesity phenotype in mice. After six months, the milk-derived polypeptide derivative shown by SEQ ID NO.5 (10 mg/kg) was administered by intraperitoneal injection once a day and continuously for 8 weeks. The mice were weighed every week for their weight changes, and at the same time, blood glucose changes of the mice were detected by a blood glucose meter. After intervention, the mice were killed, and then brown fat (BAT) at scapular, inguinal white adipose tissue (iWAT) and epididymal white adipose tissue (eWAT) were photographed. As mentioned above, H&E staining was also performed to observe morphological changes of lipid droplets, and expression of the UCP1 protein in adipose tissues was detected by immunohistochemistry and the Western blot methods.

[9] = test system: C57BL/6J male mice fed with high-fat diet; test: Insulin sensitivity (ITT) in mice with high-fat diet (Embodiment 3); format: in vivo
Method: as §1, §2

[10] = previous studies; can scavenge free radicals produced in vivo; cited from earlier work
[11] = 10 mg/kg i.p. once a day for 8 weeks after six months high-fat diet, FIG. 11

Question: For “GRKKRRQRRRPPQQVKEAMAPK [SEQ ID NO.5, theone tested in Embodiments 2-6]”, which “area under the curve (GTT)” value ([1]; 10 mg/kg for 10 weeks) is on record?
Answer: significant statistical significance

Question: What about the “blood glucose levels within 2 hours after glucose injection vs control” value ([1]; continuous intervention for 10 weeks, 5 and 10 mg/kg, glucose 1 g per kg i.p.) of the same sequence?
Answer: lower than those of the control group

Question: What about the “expression of UCP1 in two kinds of adipose tissues (immunohistochemistry and Western blot)” value (UCP1 protein [2]) of the same sequence?
Answer: increased

Question: What about the “effect on UCP1 protein content at low drug concentration (Western blot)” value (UCP1 protein [3]; 5 mg/Kg, FIG. 10) of the same sequence?
Answer: good effect

Question: And the “UCP1 immunohistochemistry brown areas in brown and white adipose tissues” value (UCP1 protein [3]; 10 weeks, 5 and 10 mg/kg i.p. twice a week, FIG. 9)?
Answer: significantly increased

Question: What about the “contents of the UCP1 protein in brown and white adipose tissues (Western blot)” value (UCP1 protein [3]; 10 weeks, 5 and 10 mg/kg, certain dose-dependent relationship, FIG. 10) of the same sequence?
Answer: significantly increased

Question: What about the “morphology sizes of lipid droplets in brown fat and white adipose tissues (H&E staining)” value [4] of the same sequence?
Answer: significantly reduced

Question: What about the “blood lipid (triglyceride) level” value [5] of the same sequence?
Answer: significantly reduced

Question: What about the “fasting blood glucose level” value [5] of the same sequence?
Answer: significantly reduced

Question: What about the insulin level [5] of the same sequence?
Answer: significantly reduced

Question: And the “sizes of the lipid droplets in the two tissues (H&E staining)” value [6]?
Answer: decreased significantly

Question: And the “fat content (wet weight test of the adipose tissues)” value ([7]; 10 weeks, FIG. 4)?
Answer: decreased significantly

Question: And the “lean mass of the mice” value ([7]; 10 weeks, FIG. 5)?
Answer: no significant change

Question: And the “volumes of subcutaneous and abdominal white adipose tissues” value ([7]; after dissection, 10 weeks, FIG. 3)?
Answer: decreased significantly

Question: And the “weight of the mice vs control group (Vehicle)” value ([7]; by 10th week)?
Answer: significantly lower

Question: What about the “body weight of the obese mice” value [8, 11] of the same sequence?
Answer: significantly reduced

Question: What about the fasting blood glucose [8, 11] of the same sequence?
Answer: decreased

Question: What about the “tissue volumes of white fat (subcutaneous and abdominal) and brown fat (scapular areas)” value ([8]; 10 mg/kg i.p. once a day for 8 weeks, after dissection, FIG. 12) of the same sequence?
Answer: significantly reduced

Question: What about the “insulin sensitivity (ITT)” value ([9]; 5 mg/kg, FIG. 7) of the same sequence?
Answer: certain statistical significance

Question: And the “blood glucose levels within 2 hours after insulin injection vs control” value ([9]; continuous intervention for 10 weeks, 5 and 10 mg/kg, insulin 0.75 U per kg i.p.)?
Answer: lower than those of the control group

Question: Which antioxidant activity [10] does the source give for “VKEAMAPK [Val-Lys-Glu-Ala-Met-Ala-Pro-Lys, isolated linear milk-derived polypeptide from β-casein 98-105 amino acids]” here?
Answer: antioxidant activity
